One data set concerns the target T1, TRPV2 (Mus musculus, UniProt Q9WTR1).
T1 construct: expressed in transfected cells; host or cells: N2a cells, eGFP co-transfected
Put plainly: Ca++ imaging in N2a cells over-expressing TRPV2. The data set is classed as cell-based. The note with it: 5 μM, mouse isoform in N2a cells. An excerpt:
(§1) Mean±SEM is shown, ≥100 cells per condition. […] Plot generated from averaged peak ΔCa++ concentration of […] per data-point.

A further data set concerns the target T2, TRPV3 (Mus musculus, UniProt Q8K424).
T2 construct: expressed in transfected cells; host or cells: N2a cells, eGFP co-transfected
Kind of data set: Ca++ imaging in N2a cells over-expressing TRPV3. Format: cell-based. The note with it: 5 μM, mouse isoform in N2a cells.
Source text: as §1

In another data set the target is T3, human TRPV2 (Homo sapiens, UniProt Q9Y5S1).
T3 construct: expressed in transfected cells; host or cells: N2a cells
Put plainly: Ca2+ signal in N2a cells transfected with human TRPV2 (hypotonicity). The data set is classed as cell-based. Conditions: hypotonicity 260 mosmol/L. How it is done:
Compounds were tested for their effect on TRPV1, TRPV2, and TRPV3. Methods were similar to those described in Example 15. Briefly, N2a cells were transfected with human TRPV1, TRPV2, or TRPV3. eGFP-transfection was used as control. For specific stimulation of TRPV1, 5 μM capsaicin was used. For stimulation of TRPV2, hypotonicity (260 mosmol/L) was used, based on previous reports of TRPV2 being osmotically responsive. N2a cells were not responsive to hypotonicity, and neither were control-transfected cells. For TRPV3-expressing cells, camphor (20% of a commercially available stock solution) was used. […] Stimulation and control protocols were applied as for TRPA1-expressing N2a cells as detailed above in Example 15.

The next data set has as its system N2a cells. Kind of data set: Cell viability (resazurin) of N2a cells. Conditions: 48 h; for cellular toxicity vs inhibitory potency against TRPV4/TRPA1, factor: mouse. The data set is classed as cell-based. How it is done:
FIGS. 30A-30B: Cellular toxicity studies of compounds 16-8 and 16-19. N2a cells were subjected to increasing concentrations of compounds 16-8 and 16-19, resulting cell viability was analyzed for the next 48 h. (FIG. 30A) Time course of cell viability in the presence of various concentrations of 16-8. […] Representative result of 2 independent experiments.
N2a cells were cultured in 96 well plates for 24-48 h. Cell viability studies relied on metabolic capability monitored with the indicator dye resazurin. Its reduction to resorufin (indicated by color change dark blue to pink) was monitored over time. Changes in absorbance at λ=570 nm were recorded using a microplate reader (Molecular Devices). […] Eight replicate cultures per experimental point were studied.

In data set [1] the test system is WT mice, whisker-pad injection of 4% formalin. Kind of data set: Formalin-evoked trigeminal irritant pain, systemic (i.p.) compound, WT mice. The data set is classed as in vivo, mouse. Conditions: 10 mg/kg i.p. Here is the method:
FIGS. 31A-31D: 16-8 and 16-19 effectively attenuate formalin-evoked trigeminal irritant pain. (FIG. 31A) Time-course of nocifensive behavior in WT mice following whisker-pad injection of 4% formalin. The mice were pre-injected (i.p., 10 mg/kg; 15 min before formalin) with GSK205, 16-8 or 16-19. Note effective reduction of nocifensive behavior in the late “neural” phase by compounds 16-8, 16-19, not by GSK205. (FIG. 31B) Cumulative response binned into 3 phases: acute phase (0-5 min), interphase (5-15 min), and late “neural” phase (15-45 min). […] (FIG. 31C) As in (FIG. 31A), but also including Trpv4^−/− mice. Compounds were applied i.p. 15 min before formalin challenge, at 10 mg/kg except established TRPA1 blocker, A967079 (25 mg/kg). […]
Compounds were tested for their effect in reducing pain using an in vivo pain model in mice. […] After injection, mice were immediately placed back into the chamber and the rubbing behavior was recorded by a private consumer-type video-camera for a 45 min observation period. The recording time was divided into 9 blocks of 5 min, and a nociceptive score was determined per block by measuring the time that the animals spent rubbing the injected area predominantly with the ipsilateral fore-paw and rarely with hind-paw. […]

The subject of data set [2] is Trpv4−/− mice, whisker-pad injection of formalin. Kind of data set: Formalin-evoked trigeminal irritant pain, systemic (i.p.) compound, Trpv4−/− mice. Format: in vivo, mouse. Conditions: 10 mg/kg i.p.; for late-phase pain behavior: vs vehicle / vs A967079 25 mg/kg. How it is done: FIGS. 31A-31D: 16-8 and 16-19 effectively attenuate formalin-evoked trigeminal irritant pain. (FIG. 31A) Time-course of nocifensive behavior in WT mice following whisker-pad injection of 4% formalin. The mice were pre-injected (i.p., 10 mg/kg; 15 min before formalin) with GSK205, 16-8 or 16-19. Note effective reduction of nocifensive behavior in the late “neural” phase by compounds 16-8, 16-19, not by GSK205. (FIG. 31B) Cumulative response binned into 3 phases: acute phase (0-5 min), interphase (5-15 min), and late “neural” phase (15-45 min). […] (FIG. 31C) As in (FIG. 31A), but also including Trpv4^−/− mice. Compounds were applied i.p. 15 min before formalin challenge, at 10 mg/kg except established TRPA1 blocker, A967079 (25 mg/kg). Previously-established attenuated nocifensive behavior in early and late phase in Trpv4^−/− mice was recapped, which was reduced further by TRPA1 blocker, A967079. (FIG. 31D) As in (FIG. 31B), plus inclusion of Trpv4^−/− mice. Robust effects of TRPA1-blocker, A967079, were mimicked equi-potently by 16-8 and 16-19 for early phase, and by 16-8 for late phase, partially by 16-19 for late phase. (FIG. 31A, FIG. 31C) show averaged behavioral metrics per time-point, bars in (FIG. 31B, FIG. 31D) represent mean±SEM; for (D) *p<0.05; #P<0.005, one-way ANOVA; for all panels n=5-8 mice/group.
Compounds were tested for their effect in reducing pain using an in vivo pain model in mice. For mouse formalin-evoked irritant behavior measurements, mice were well-fed, well-rested, and tested at the same time of day, at the same time-point of their circadian rhythm. They were allowed to acclimate to a plexiglas chamber for at least 30 min before testing, and received 10 μL subcutaneous injection of 4% of formalin (diluted from an aqueous solution of commercial 37% formaldehyde with normal saline (NS)) through a 30-gauge needle into the right whiskerpad, as further detailed in Luccarini et al. (J. Pain, 2006, 7, 908-914). Normal saline was used as control injection. After injection, mice were immediately placed back into the chamber and the rubbing behavior was recorded by a private consumer-type video-camera for a 45 min observation period. The recording time was divided into 9 blocks of 5 min, and a nociceptive score was determined per block by measuring the time that the animals spent rubbing the injected area predominantly with the ipsilateral fore-paw and rarely with hind-paw. This rubbing behavior with fore-paw is evoked by pain, which is distinct from itch behavior. Behavioral analysis was conducted by observers blinded to treatment.
We observed significant residual irritant-pain behavior in all phases of the formalin model in Trpv4^−/− mice, consistent with our previous report^13 (FIG. 31C,D). […] A reference TRPA1-inhibitory compound, A967079, was used at 25 mg/kg body weight as a positive control to inhibit TRPA1, based on a previous report^38. Reduction of pain behavior in Trpv4^−/− mice was striking, more than 50% in the late neural phase. […] We conclude that compound 16-8 also functions as a potent TRPA1-inhibitor in an in-vivo irritant pain model specifically designed to assess the contribution of TRPA1 to trigeminal irritant pain, and at least as potent as an established reference TRPA1-antagonistic compound.

The nature of data set [3]: Assessment of hepatic, renal and cardiac function in treated mice. Format: in vivo, mouse. Conditions: 10 mg/kg i.p., vs vehicle; for heart rate (EKG): over 1 h, at the 6 h time-point. Here is the method: Mice were treated i.p. with compounds 16-8 and 16-19 (10 mg/kg). Hepatic and renal integrity were analyzed by alanine amino-transferase- and creatinine assays (Sigma), both relying on measurement of absorbance at λ=570 nm in 96-well micro-titerplates. 8 technical replicates per animal were performed.
For heart rate assessment in mice treated with 16-8 and 16-19, animals were fitted with two electrodes, one to the ear, via clip, one to the rib-cage, using firm adhesive. Heart rate was monitored and analyzed using axoscope and clampfit 9.2 software (Molecular Devices)

T1 sequence (Q9WTR1 whole entry): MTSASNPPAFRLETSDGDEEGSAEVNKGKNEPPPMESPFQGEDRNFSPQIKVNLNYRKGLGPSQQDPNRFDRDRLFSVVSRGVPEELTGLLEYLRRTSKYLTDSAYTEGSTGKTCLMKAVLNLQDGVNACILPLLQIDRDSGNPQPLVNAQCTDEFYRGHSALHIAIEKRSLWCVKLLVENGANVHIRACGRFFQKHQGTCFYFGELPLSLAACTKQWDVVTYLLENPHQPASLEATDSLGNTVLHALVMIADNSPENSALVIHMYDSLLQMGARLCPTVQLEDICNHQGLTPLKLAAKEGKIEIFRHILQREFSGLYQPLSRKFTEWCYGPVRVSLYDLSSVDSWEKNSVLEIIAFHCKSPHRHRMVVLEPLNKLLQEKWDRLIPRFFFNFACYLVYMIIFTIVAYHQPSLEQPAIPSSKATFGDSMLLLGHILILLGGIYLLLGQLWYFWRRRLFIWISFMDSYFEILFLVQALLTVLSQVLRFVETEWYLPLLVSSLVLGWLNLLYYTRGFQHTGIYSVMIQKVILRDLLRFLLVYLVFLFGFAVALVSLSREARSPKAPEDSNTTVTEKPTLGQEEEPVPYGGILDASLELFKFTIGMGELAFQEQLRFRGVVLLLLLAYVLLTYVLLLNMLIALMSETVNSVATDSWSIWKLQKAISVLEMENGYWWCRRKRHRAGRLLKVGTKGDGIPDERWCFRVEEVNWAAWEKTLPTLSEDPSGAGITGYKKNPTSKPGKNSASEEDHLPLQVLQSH
T2 sequence (Q8K424 whole entry): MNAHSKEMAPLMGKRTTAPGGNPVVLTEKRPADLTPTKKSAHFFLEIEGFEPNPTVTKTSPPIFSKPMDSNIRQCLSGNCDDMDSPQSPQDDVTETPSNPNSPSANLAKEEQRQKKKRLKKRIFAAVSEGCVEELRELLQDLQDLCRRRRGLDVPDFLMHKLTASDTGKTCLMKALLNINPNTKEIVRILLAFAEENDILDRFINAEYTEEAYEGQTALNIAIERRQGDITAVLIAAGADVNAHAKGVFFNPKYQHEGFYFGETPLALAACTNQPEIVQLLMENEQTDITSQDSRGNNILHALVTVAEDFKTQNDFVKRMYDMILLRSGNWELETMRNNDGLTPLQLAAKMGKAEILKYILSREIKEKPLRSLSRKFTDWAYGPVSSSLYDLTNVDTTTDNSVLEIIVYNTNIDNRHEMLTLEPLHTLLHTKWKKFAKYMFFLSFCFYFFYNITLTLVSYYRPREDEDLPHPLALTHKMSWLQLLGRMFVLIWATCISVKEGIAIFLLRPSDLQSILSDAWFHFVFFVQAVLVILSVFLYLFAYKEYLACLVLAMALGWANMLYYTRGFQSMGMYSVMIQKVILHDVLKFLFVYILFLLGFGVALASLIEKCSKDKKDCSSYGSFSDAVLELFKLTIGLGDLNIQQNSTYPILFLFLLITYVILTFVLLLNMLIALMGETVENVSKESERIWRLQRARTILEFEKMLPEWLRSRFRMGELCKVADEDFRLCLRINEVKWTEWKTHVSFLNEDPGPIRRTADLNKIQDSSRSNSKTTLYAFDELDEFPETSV
T3 sequence (Q9Y5S1 whole entry): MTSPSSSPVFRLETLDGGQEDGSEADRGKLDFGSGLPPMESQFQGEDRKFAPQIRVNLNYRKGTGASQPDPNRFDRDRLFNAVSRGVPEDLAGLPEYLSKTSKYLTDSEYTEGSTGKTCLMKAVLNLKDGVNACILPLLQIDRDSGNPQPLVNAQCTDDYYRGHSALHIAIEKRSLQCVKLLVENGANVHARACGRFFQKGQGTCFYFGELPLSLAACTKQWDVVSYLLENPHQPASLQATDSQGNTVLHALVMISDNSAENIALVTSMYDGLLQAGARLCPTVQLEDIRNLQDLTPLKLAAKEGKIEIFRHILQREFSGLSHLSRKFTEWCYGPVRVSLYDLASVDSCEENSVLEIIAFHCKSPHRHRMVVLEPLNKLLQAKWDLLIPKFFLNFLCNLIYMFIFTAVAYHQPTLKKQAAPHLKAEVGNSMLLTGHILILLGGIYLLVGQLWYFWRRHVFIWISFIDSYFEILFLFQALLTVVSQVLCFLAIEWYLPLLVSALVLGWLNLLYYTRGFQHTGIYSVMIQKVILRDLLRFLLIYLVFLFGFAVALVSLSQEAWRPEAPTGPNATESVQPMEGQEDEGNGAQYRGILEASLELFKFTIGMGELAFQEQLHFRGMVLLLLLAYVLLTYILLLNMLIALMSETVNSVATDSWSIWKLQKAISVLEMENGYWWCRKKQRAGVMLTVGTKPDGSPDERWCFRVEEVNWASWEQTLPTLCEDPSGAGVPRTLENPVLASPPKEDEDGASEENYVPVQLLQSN

For `CN(CCc1ccc(Nc2nc(-c3ccccc3)cs2)cc1)Cc1ccccc1` [Compound 16-8], on TRPV2, the “inhibition of TRPV2” value is given as “did not inhibit”. In addition, the “inhibition of TRPV3” value against TRPV3 is given as “did not inhibit”. For the same molecule, the “effect on Ca2+ transience, TRPV2” value at human TRPV2 is listed as “not affected”. In addition, in the data set on N2a cells, the “cell viability time course at increasing concentrations” value was “clear reduction at 40 and 80 μM”; the “cellular toxicity vs inhibitory potency against TRPV4/TRPA1, factor” value is reported as 50-100. The “formalin-evoked pain behavior in the delayed (late, neural) phase” value in data set [1] is reported as “significant attenuation”. For the same molecule, in data set [2], the immediate-phase pain behavior result is “virtually eliminated” and the “late-phase pain behavior” value was “strikingly reduced”. Besides, in data set [3], the “heart rate (EKG)” value was “did not detect differences and changes in heart rate”; the “alanine-amino-transferase (ALT)” value was “not significantly elevated”; the serum creatinin result is “not significantly elevated”.
Regarding `CCN(CCc1ccc(Nc2nc(-c3ccccc3)cs2)cc1)Cc1ccccc1` [Compound 16-19], the “inhibition of TRPV2” value at TRPV2 is recorded as “did not inhibit”. The “inhibition of TRPV3” value against TRPV3 is on record as “did not inhibit”. Further, on human TRPV2, the “effect on Ca2+ transience, TRPV2” value is recorded as “not affected”. Moreover, the “cellular toxicity vs inhibitory potency against TRPV4/TRPA1, factor” value with N2a cells is 50-100. For the same molecule, in data set [1], the “formalin-evoked pain behavior in the delayed (late, neural) phase” value is given as “robust effect”. Moreover, in data set [2], the immediate-phase pain behavior entry is “virtually eliminated” and the “late-phase pain behavior” value is “significantly reduced”. Besides, in data set [3], the “heart rate (EKG)” value is “did not detect differences and changes in heart rate”; the “alanine-amino-transferase (ALT)” value is “not significantly elevated”; the serum creatinin entry is “not significantly elevated”.

For the origin of these results see US11564911B2, “Small molecule dual-inhibitors of TRPV4 and TRPA1 for sanitizing and anesthetizing” (Duke University, priority 2016, dated 2023).
